Results published in article PMC4917279 (Journal of Medicinal Chemistry, 2016).
Entries after “also recorded” stand apart in the source; their conditions may differ.

How the values were obtained:
CDC2L1 = molecular target: T1, CDC2L1 (Homo sapiens, UniProt P21127); assay: KINOMEscan; assay type: binding; settings: read-out: %Ctrl @ 1000 nM
T1 construct: purchased DiscoveRx KINOMEscan

MAP4K2 = molecular target: T2, MAP4K2 (Homo sapiens, UniProt Q12851); assay: KINOMEscan; assay type: binding; settings: read-out: %Ctrl @ 1000 nM
T2 construct: purchased DiscoveRx KINOMEscan

DCAMKL1 = molecular target: T3, DCAMKL1 (Homo sapiens, UniProt O15075); assay: KINOMEscan; assay type: binding; settings: read-out: %Ctrl @ 1000 nM
T3 construct: purchased DiscoveRx KINOMEscan

BMPR1B = molecular target: T4, BMPR1B (Homo sapiens, UniProt O00238); assay: KINOMEscan; assay type: binding; settings: read-out: %Ctrl @ 1000 nM
T4 construct: purchased DiscoveRx KINOMEscan

GCN2(Kin.Dom.2,S808G) = molecular target: T5, GCN2(Kin.Dom.2,S808G) (Homo sapiens, UniProt Q9P2K8, S808G); assay: KINOMEscan; assay type: binding; settings: read-out: %Ctrl @ 1000 nM
T5 construct: GCN2(Kin.Dom.2,S808G); purchased DiscoveRx KINOMEscan

GRK4 = molecular target: T6, GRK4 (Homo sapiens, UniProt P32298); assay: KINOMEscan; assay type: binding; settings: read-out: %Ctrl @ 1000 nM
T6 construct: purchased DiscoveRx KINOMEscan

[1] = molecular target: T7, ABL1(Y253F)-phosphorylated (Homo sapiens, UniProt P00519, Y253F); assay: KINOMEscan; assay type: binding; settings: read-out: %Ctrl @ 1000 nM
T7 construct: purchased DiscoveRx

AURKB = molecular target: T8, AURKB (Homo sapiens, UniProt Q96GD4); assay: KINOMEscan; assay type: binding; settings: read-out: %Ctrl @ 1000 nM
T8 construct: purchased DiscoveRx KINOMEscan

ASK1 = molecular target: T9, ASK1 (Homo sapiens, UniProt Q99683); assay: KINOMEscan; assay type: binding; settings: read-out: %Ctrl @ 1000 nM
T9 construct: purchased DiscoveRx KINOMEscan

PKMYT1 = molecular target: T10, PKMYT1 (Homo sapiens, UniProt Q99640); assay: KINOMEscan; assay type: binding; settings: read-out: %Ctrl @ 1000 nM
T10 construct: purchased DiscoveRx KINOMEscan

ERK8 = molecular target: T11, ERK8 (Homo sapiens, UniProt Q8TD08); assay: KINOMEscan; assay type: binding; settings: read-out: %Ctrl @ 1000 nM
T11 construct: purchased DiscoveRx KINOMEscan

[2] = Exposure and tolerability after oral administration to mice; assay type: in vivo; settings: 10–100 mg/kg po qd
PFTAIRE2 = molecular target: T12, PFTAIRE2 (Homo sapiens, UniProt Q96Q40); assay: KINOMEscan; assay type: binding; settings: read-out: %Ctrl @ 1000 nM
T12 construct: purchased DiscoveRx KINOMEscan

TIE2 = molecular target: T13, TIE2 (Homo sapiens, UniProt Q02763); assay: KINOMEscan; assay type: binding; settings: read-out: %Ctrl @ 1000 nM
T13 construct: purchased DiscoveRx KINOMEscan

ALK(L1196M) = molecular target: T14, ALK(L1196M) (Homo sapiens, UniProt Q9UM73, L1196M); assay: KINOMEscan; assay type: binding; settings: read-out: %Ctrl @ 1000 nM
T14 construct: purchased DiscoveRx KINOMEscan

DAPK1 = molecular target: T15, DAPK1 (Homo sapiens, UniProt P53355); assay: KINOMEscan; assay type: binding; settings: read-out: %Ctrl @ 1000 nM
T15 construct: purchased DiscoveRx KINOMEscan

[3] = molecular target: T16, RSK3(Kin.Dom.1-N-terminal) (Homo sapiens, UniProt Q15349); assay: KINOMEscan; assay type: binding; settings: read-out: %Ctrl @ 1000 nM
T16 construct: RSK3(Kin.Dom.1-N-terminal); purchased DiscoveRx KINOMEscan

LCK = molecular target: T17, LCK (Homo sapiens, UniProt P06239); assay: KINOMEscan; assay type: binding; settings: read-out: %Ctrl @ 1000 nM
T17 construct: purchased DiscoveRx KINOMEscan

ALK(C1156Y) = molecular target: T18, ALK(C1156Y) (Homo sapiens, UniProt Q9UM73, C1156Y); assay: KINOMEscan; assay type: binding; settings: read-out: %Ctrl @ 1000 nM
T18 construct: purchased DiscoveRx KINOMEscan

EPHA3 = molecular target: T19, EPHA3 (Homo sapiens, UniProt P29320); assay: KINOMEscan; assay type: binding; settings: read-out: %Ctrl @ 1000 nM
T19 construct: purchased DiscoveRx KINOMEscan

MKNK2 = molecular target: T20, MKNK2 (Homo sapiens, UniProt Q9HBH9); assay: KINOMEscan; assay type: binding; settings: read-out: %Ctrl @ 1000 nM
T20 construct: purchased DiscoveRx KINOMEscan

PRKD2 = molecular target: T21, PRKD2 (Homo sapiens, UniProt Q9BZL6); assay: KINOMEscan; assay type: binding; settings: read-out: %Ctrl @ 1000 nM
T21 construct: purchased DiscoveRx KINOMEscan

CAMK2G = molecular target: T22, CAMK2G (Homo sapiens, UniProt Q13555); assay: KINOMEscan; assay type: binding; settings: read-out: %Ctrl @ 1000 nM
T22 construct: purchased DiscoveRx KINOMEscan

[4] = test system: KYSE-150, U2OS, and A2780 cell lines; assay: Caspase 3/7 activation assay; assay type: cell-based
Procedure: Effects on apoptosis induction were measured with the Caspase-Glo 3/7 Assay System (Promega).

FGFR2 = molecular target: T23, FGFR2 (Homo sapiens, UniProt P21802); assay: KINOMEscan; assay type: binding; settings: read-out: %Ctrl @ 1000 nM
T23 construct: purchased DiscoveRx KINOMEscan

VRK2 = molecular target: T24, VRK2 (Homo sapiens, UniProt Q86Y07); assay: KINOMEscan; assay type: binding; settings: read-out: %Ctrl @ 1000 nM
T24 construct: purchased DiscoveRx KINOMEscan

MUSK = molecular target: T25, MUSK (Homo sapiens, UniProt O15146); assay: KINOMEscan; assay type: binding; settings: read-out: %Ctrl @ 1000 nM
T25 construct: purchased DiscoveRx KINOMEscan

ERK3 = molecular target: T26, ERK3 (Homo sapiens, UniProt Q16659); assay: KINOMEscan; assay type: binding; settings: read-out: %Ctrl @ 1000 nM
T26 construct: purchased DiscoveRx KINOMEscan

EGFR(G719S) = molecular target: T27, EGFR(G719S) (Homo sapiens, UniProt P00533, G719S); assay: KINOMEscan; assay type: binding; settings: read-out: %Ctrl @ 1000 nM
T27 construct: purchased DiscoveRx KINOMEscan

[5] = molecular target: T28, ABL1(T315I)-phosphorylated (Homo sapiens, UniProt P00519, T315I); assay: KINOMEscan; assay type: binding; settings: read-out: %Ctrl @ 1000 nM
T28 construct: purchased DiscoveRx

PRKG1 = molecular target: T29, PRKG1 (Homo sapiens, UniProt Q13976); assay: KINOMEscan; assay type: binding; settings: read-out: %Ctrl @ 1000 nM
T29 construct: purchased DiscoveRx KINOMEscan

HCK = molecular target: T30, HCK (Homo sapiens, UniProt P08631); assay: KINOMEscan; assay type: binding; settings: read-out: %Ctrl @ 1000 nM
T30 construct: purchased DiscoveRx KINOMEscan

CDK2 = molecular target: T31, CDK2 (Homo sapiens, UniProt P24941); assay: KINOMEscan; assay type: binding; settings: read-out: %Ctrl @ 1000 nM
T31 construct: purchased DiscoveRx KINOMEscan

TXK = molecular target: T32, TXK (Homo sapiens, UniProt P42681); assay: KINOMEscan; assay type: binding; settings: read-out: %Ctrl @ 1000 nM
T32 construct: purchased DiscoveRx KINOMEscan

T30 sequence (P08631 whole entry): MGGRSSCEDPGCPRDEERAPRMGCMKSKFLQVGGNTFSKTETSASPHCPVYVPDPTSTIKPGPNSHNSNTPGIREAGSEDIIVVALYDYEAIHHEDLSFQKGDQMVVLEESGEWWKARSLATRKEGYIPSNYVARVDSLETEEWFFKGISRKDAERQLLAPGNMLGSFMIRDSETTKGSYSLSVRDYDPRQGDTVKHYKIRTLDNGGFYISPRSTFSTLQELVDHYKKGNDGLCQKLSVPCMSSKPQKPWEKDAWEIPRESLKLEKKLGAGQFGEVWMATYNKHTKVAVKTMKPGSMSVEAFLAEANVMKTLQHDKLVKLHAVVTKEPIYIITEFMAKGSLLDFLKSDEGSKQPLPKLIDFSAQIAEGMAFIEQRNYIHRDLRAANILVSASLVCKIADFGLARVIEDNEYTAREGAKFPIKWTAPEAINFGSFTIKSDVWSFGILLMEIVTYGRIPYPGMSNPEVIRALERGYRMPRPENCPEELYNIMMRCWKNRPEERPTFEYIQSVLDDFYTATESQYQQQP
T27 sequence (P00533 25-1210 G719S): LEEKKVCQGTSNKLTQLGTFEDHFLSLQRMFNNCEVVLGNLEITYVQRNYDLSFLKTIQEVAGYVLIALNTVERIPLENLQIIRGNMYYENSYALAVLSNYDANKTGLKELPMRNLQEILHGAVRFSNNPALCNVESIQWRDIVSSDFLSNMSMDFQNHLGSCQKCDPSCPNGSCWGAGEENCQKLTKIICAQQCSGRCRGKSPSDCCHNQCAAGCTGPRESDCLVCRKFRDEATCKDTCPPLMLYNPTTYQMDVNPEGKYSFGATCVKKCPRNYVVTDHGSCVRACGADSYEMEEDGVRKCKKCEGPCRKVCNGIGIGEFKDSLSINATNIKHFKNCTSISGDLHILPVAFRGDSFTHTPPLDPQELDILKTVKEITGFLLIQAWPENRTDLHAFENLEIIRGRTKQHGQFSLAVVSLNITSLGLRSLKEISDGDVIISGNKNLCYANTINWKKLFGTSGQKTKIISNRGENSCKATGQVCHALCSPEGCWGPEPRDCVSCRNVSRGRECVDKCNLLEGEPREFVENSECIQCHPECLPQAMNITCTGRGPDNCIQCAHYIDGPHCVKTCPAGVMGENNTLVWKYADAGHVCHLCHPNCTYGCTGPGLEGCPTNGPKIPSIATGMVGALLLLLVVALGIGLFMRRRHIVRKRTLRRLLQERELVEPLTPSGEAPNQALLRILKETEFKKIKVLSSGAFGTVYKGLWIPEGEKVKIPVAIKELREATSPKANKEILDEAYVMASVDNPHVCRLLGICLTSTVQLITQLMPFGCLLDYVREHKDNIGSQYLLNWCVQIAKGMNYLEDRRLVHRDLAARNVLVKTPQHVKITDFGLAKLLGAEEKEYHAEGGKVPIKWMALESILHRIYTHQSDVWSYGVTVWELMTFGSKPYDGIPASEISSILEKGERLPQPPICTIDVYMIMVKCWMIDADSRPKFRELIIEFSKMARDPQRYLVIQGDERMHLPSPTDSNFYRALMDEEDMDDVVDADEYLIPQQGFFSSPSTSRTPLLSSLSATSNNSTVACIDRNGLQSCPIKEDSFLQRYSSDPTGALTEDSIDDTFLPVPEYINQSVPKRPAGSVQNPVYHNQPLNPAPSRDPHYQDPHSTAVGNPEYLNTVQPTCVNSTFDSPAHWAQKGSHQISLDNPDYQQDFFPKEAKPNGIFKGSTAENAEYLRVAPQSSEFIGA
T25 sequence (O15146 24-869): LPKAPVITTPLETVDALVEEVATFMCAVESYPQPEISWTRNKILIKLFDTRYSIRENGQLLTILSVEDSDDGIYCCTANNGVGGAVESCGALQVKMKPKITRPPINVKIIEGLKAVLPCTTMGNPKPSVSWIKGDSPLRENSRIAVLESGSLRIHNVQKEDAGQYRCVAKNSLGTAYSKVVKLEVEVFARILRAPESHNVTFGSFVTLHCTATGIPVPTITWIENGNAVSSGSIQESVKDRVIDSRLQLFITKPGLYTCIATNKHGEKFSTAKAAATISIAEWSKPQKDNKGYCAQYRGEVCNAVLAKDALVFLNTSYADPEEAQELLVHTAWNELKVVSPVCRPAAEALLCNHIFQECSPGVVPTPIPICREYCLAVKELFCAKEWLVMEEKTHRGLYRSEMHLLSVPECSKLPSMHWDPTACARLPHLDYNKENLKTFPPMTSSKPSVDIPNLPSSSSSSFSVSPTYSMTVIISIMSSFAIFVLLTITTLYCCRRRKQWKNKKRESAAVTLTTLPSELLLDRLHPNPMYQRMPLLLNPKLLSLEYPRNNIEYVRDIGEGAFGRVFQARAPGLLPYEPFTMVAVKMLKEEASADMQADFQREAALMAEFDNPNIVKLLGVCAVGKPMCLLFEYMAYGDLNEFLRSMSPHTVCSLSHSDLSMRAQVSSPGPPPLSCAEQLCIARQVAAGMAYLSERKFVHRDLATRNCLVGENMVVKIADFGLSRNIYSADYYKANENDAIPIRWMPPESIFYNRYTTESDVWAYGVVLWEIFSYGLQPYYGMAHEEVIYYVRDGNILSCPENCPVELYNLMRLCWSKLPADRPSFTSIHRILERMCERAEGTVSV
T5 sequence (Q9P2K8 590-1001 S808G limits assumed): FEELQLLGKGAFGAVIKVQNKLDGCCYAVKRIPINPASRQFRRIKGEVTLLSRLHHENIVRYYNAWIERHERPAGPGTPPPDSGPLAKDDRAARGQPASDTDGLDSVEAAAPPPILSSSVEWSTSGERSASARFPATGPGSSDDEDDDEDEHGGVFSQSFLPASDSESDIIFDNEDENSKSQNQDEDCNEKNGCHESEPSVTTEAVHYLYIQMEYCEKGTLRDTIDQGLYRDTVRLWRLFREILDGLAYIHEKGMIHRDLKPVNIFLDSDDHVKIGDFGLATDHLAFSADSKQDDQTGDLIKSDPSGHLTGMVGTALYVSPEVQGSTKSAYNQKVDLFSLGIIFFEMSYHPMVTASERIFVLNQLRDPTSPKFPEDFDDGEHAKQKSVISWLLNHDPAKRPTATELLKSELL
T13 sequence (Q02763 23-1124): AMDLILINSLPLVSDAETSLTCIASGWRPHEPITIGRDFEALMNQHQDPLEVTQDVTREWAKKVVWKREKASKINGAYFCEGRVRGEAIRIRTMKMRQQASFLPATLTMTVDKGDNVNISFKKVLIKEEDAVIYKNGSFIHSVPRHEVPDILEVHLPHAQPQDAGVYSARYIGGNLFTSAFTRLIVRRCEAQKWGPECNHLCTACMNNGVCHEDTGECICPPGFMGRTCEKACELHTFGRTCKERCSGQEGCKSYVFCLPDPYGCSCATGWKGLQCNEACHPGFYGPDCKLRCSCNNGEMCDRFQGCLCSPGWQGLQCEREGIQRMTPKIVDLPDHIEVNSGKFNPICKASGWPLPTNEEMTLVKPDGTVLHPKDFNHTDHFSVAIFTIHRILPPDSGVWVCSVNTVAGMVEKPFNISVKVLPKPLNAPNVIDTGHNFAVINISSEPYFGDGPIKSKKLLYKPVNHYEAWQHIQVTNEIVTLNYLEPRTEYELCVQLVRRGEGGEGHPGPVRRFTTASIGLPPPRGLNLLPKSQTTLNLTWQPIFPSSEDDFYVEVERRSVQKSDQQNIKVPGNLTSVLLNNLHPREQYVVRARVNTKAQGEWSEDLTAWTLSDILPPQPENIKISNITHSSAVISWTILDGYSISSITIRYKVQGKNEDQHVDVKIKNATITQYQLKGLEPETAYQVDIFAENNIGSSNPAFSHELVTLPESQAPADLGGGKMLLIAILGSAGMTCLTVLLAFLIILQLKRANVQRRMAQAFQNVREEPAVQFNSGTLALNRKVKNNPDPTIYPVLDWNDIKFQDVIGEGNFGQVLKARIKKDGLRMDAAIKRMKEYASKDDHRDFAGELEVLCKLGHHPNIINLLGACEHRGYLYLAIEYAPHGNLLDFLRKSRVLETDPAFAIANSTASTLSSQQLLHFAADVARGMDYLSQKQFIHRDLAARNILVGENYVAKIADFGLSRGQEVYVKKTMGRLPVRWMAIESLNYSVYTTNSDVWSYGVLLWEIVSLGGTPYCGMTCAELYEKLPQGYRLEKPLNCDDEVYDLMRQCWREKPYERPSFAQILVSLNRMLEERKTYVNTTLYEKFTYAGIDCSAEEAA
T1 sequence (P21127 whole entry): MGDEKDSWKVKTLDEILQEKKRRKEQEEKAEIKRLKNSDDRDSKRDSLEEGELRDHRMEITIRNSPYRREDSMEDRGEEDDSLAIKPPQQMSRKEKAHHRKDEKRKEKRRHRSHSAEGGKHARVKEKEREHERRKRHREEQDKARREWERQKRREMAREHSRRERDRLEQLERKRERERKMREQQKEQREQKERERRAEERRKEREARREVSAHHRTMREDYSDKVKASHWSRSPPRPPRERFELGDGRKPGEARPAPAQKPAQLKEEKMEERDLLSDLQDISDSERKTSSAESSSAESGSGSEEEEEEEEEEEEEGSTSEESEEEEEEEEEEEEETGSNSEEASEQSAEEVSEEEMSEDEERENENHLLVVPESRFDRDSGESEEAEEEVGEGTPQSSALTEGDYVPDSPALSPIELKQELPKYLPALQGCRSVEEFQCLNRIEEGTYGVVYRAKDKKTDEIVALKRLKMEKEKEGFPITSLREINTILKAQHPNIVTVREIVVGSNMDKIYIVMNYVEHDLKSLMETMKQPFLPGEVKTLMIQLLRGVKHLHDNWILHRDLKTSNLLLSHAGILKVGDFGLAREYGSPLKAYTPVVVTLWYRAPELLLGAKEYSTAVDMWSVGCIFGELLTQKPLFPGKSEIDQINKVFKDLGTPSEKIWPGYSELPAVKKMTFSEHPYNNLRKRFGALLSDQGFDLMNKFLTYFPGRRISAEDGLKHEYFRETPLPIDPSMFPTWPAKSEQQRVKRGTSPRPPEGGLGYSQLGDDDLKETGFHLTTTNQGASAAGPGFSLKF

For CCN(C(=O)CO)[C@H]1CN(/C(=N\C#N)Nc2cccc(OC(F)F)c2)N=C1c1ccc(Cl)c(Cl)c1 [(S)-4], the remaining binding at 1 µM (CDC2L1) was 97%, the remaining binding at 1 µM (MAP4K2) was 96% and the remaining binding at 1 µM (DCAMKL1) was 67%. For the same compound, the remaining binding at 1 µM (BMPR1B) was 100%, the remaining binding at 1 µM (GCN2(Kin.Dom.2,S808G)) was 100% and the remaining binding at 1 µM (GRK4) was 98%. It also gave a remaining binding at 1 µM [1] of 100%, a remaining binding at 1 µM (AURKB) of 93% and a remaining binding at 1 µM (ASK1) of 88%. For the same compound, the remaining binding at 1 µM (PKMYT1) was 100%, the remaining binding at 1 µM (ERK8) was 96% and the Tolerability [2] was “well tolerated”. It also gave a remaining binding at 1 µM (PFTAIRE2) of 100%, a remaining binding at 1 µM (TIE2) of 100% and a remaining binding at 1 µM (ALK(L1196M)) of 92%. The remaining binding at 1 µM (DAPK1) was 100%, the remaining binding at 1 µM [3] was 91% and the remaining binding at 1 µM (LCK) was 66%. For the same compound, the remaining binding at 1 µM (ALK(C1156Y)) was 100%, the remaining binding at 1 µM (EPHA3) was 100% and the remaining binding at 1 µM (MKNK2) was 96%. The remaining binding at 1 µM (PRKD2) was 100%, the remaining binding at 1 µM (CAMK2G) was 89% and the “Caspase 3/7 activation in combination with doxorubicin” value ([4]; 2 days pretreatment, then doxorubicin 24 h, KYSE-150, U2OS, A2780) was “significantly improved; also recorded: significantly improving”. For the same compound, the Apoptosis induction alone ([4]; without doxorubicin) was “without inducing apoptosis alone”, the remaining binding at 1 µM (FGFR2) was 86% and the remaining binding at 1 µM (VRK2) was 93%. The remaining binding at 1 µM (MUSK) was 97%, the remaining binding at 1 µM (ERK3) was 77% and the remaining binding at 1 µM (EGFR(G719S)) was 78%. It also gave a remaining binding at 1 µM [5] of 100%, a remaining binding at 1 µM (PRKG1) of 100% and a remaining binding at 1 µM (HCK) of 68%. It also gave a remaining binding at 1 µM (CDK2) of 100% and a remaining binding at 1 µM (TXK) of 73%.
